Ends that are not written are not given here.
Legend:
[1] = system: HUVEC Endothelial organoids; test: Organoid stimulation with IL-1β and TGF-β and treatment with PIEZO1 or ROCK inhibitor; EndMT and endothelial marker expression; assay type: cell-based, human; settings: FIG. 14a/14b; for TAGLN expression / fibronectin expression: EndMT marker
Procedure: (§1) HUVEC Endothelial organoids were seeded in 384-well U-bottom ULA plates (S-bio #MS-9384UZ, lot 20839306) and centrifuged at 1,000 rpm for 5 min (142 rcf, Thermo Scientific Sorvall ST16 centrifuge). Endothelial organoid seeding volume was 25 μL per well. The HUVEC organoid seeding solution consisted of 120,000 HUVEC cells/mL, 160 μg/mL Matrigel (Corning #356-231, 10.7 mg/mL), 10% FBS (GeminiBio #900-108) and 0.24% methylcellulose (Methocel, Sigma Aldrich #94378). A key procedure being to add cold Matrigel into warm media to induce gelling.

[2] = system: HUVEC Endothelial organoids; test: LPS and TNF-α stimulated endothelial organoid; E-selectin immunofluorescence and bright field imaging; assay type: cell-based, human
Procedure: as §1
Fixed HUVEC Organoids were washed with PBS and permeabilized with 0.1% Tween in PBS for 10 min at 4° C. Samples were incubated with Organoid washing buffer (OWB, 0.2% BSA/0.1% Triton-X-100 in PBS) to prevent non-specific binding for 15 min at 4° C. Samples were incubated with primary antibodies in OWB at 4° C. overnight. Primary antibodies include: SELE Rabbit pAb (ABclonal, #A2191, Lot 5500024697, 1:1,000 dilution), Human VE-Cadherin Antibody (R&D systems, #AF938, 1:40 dilution) and Mouse anti-CD34 antibody (Clone QBEND/10, Invitrogen #MA1-10202, 1:500 dilution). Samples were washed with OWB and incubated with secondary antibodies or Alexa Fluor 647 Phalloidin (Invitrogen, #A22287, Lot 2170291, 1:400 dilution) in OWB for 2 hours at room temperature (RT). Secondary antibodies include: Goat anti-Rabbit Alexa Fluor 647 (Invitrogen, #A-21244, Lot 2134003, 1:500 dilution), Donkey anti-rat Alexa Fluor 488 (1:2,000 dilution), Goat anti-mouse Alexa Fluor 488 (Thermo Fisher, #A-11001, 1:2,000 dilution) and Donkey anti-mouse Alexa Fluor 568 (Invitrogen #A10037, 1:1,000 dilution). Organoids were washed with PBS and incubated with DAPI in PBS for 30 min at RT and imaged using Spinning disk Confocal microscope (Nikon, CSU-W1) with 10×, 20× and 60× magnification. E-selectin, Integrin α6 and CD34 stained organoids were performed without permeabilization step, VE-Cadherin and Phalloidin stained organoids were performed with permeabilization step
There is currently a lot of research being conducted on endothelial cells in relation to inflammation. […]

Compound	TAGLN expression [1]	fibronectin expression [1]	changes in the bright field (BF) ([2]; after 24 hours of treatment)	E-selectin signal on the surface of the organoids ([2]; fluorescent staining after 24 hours of treatment, compared to the control group, FIG. 11)	E-selectin fluorescence in relation to concentration ([2]; fluorescent staining, FIG. 11)	PECAM1 expression [1]
GsMTx4: PIEZO1 inhibitor (GCLEFWWKCNPNDDKCCRPKLKCSKLFKLCNFSF; ends and bridges not checked; cysteine pairing not given here; UniProt Q7YT39 47-80, looked up)	did not alter TAGLN	decreased fibronectin expression	–	–	–	–
TNF-α	–	–	no significant changes were observed	showed expression of the E-selectin signal	increase in fluorescence proportional to their concentrations	–
IL-1β: cytokine used for organoid stimulation; its effect indicated an inflammatory response	without affecting fibronectin or TAGLN levels	without affecting fibronectin	–	–	–	reduced PECAM1 expression
C[C@@H](N)[C@H]1CC[C@H](C(=O)Nc2ccncc2)CC1 [Y-27632]	TAGLN expression remained unchanged	elevated fibronectin levels	–	–	–	increased PECAM1 expression
